Measured values reported in patent US20120035247A1, “RNA Interference Mediated Inhibition of Signal Transducer and Activator of Transcription 6 (STAT6) Gene Expression Using Short Interfering Nucleic Acid (siNA)” (Merck Sharp & Dohme Corp., priority 2009, published 2012).
[invAb] = inverted abasic unit; m = 2'-O-methyl; r = 2'-OH (RNA); f = 2'-fluoro

Key:
STAT6 mRNA [1] = assay: STAT6 siNA screen and dose response in human A549 cells, STAT6 mRNA by quantitative RT-PCR (Taqman); assay type: cell-based; conditions: human A549 cells, 10 nM siNA, 24 hrs, normalized to GAPDH and non-targeting control, mean ± S.D., n = 3
Protocol: A549 (human; ATCC cat# CCL-185): Cells were cultured at 37° C. in the presence of 5% CO2 and grown in Ham's F12K medium with 2 mM L-glutamine adjusted to contain 1.5 g/L sodium bicarbonate and supplemented with fetal bovine serum at a final concentration of 10%, 100 μg/mL of streptomycin, and 100 U/mL penicillin.
(§1) Cells were plated in all wells of a tissue-culture treated, 96-well plate at a final count of 5000 cells/well in […], of the appropriate culture media. The cells were cultured for 24 hours after plating at 37° C. in the presence of 5% CO2.
(§2) After 24 hours, complexes containing siNA and RNAiMax were created as follows: A solution of RNAiMax diluted 33-fold in OPTI-MEM was prepared. In parallel, solutions of the siNAs for testing were prepared to a final concentration of 120 nM in OPTI-MEM. After incubation of RNAiMax/OPTI-MEM solution at room temperature for 5 min, an equal volume of the siNA solution and the RNAiMax solution were added together for each of the siNAs.
(§3) This solution was incubated at room temperature for 20 minutes. After incubation, 20 uL of the solution was added to each of the relevant wells. The final concentration of siNA in each well was 10 nM and the final volume of RNAiMax in each well was 0.3u1.
(§4) The time of incubation with the RNAiMax-siNA complexes was 24 hours and there was no change in media between transfection and harvesting, unless otherwise indicated.
(§5) RNA was extracted from a 96-well plate using the TaqMan® Gene Expression Cells-to-CT™ Kit (Cat#4399002) with a modified protocol. Briefly, a 60 uL (1 plate) or 110 uL (2 plates) of the Lysis Solution with DNase I was dispensed into each well of the Lysis Buffer Plate (twin.tec full skirt plate). The lysis buffer and stop plates were stored at 4° C. until the cells were washed.
(§6) The plate was spun at 1100 rpm for 5 minutes. The culture medium was aspirated and discarded from the wells of the culture plate. The lysis was performed automatically using a BioMek FX instrument and method. After the Biomek method was completed, the lysis plate was incubated for 2 min. at room temperature. The lysis plate can be stored for 2 hours at 4° C., or at −20° C. or −80° C. for two months.
(§7) Each well of the reverse transcription plate required 10 uL of 2× reverse transcriptase Buffer, luL of 20× reverse transcription enzyme and 2 uL of nuclease-free water. The reverse transcription master mix was prepared by mixing 2× reverse transcription buffer, 20× reverse transcription enzyme mix, and nuclease-free water. 13 uL of the reverse transcription master mix was dispensed into each well of the reverse transcription plate (semi-skirted). A separate reverse transcription plate was prepared for each cell plate. The plate was loaded onto a Biomek NX or Biomek FX Dual-96 and the Biomek method was run. The program is programmed to automatically added 7 uL of lysate from the cell lysis procedure described above into each well of the reverse transcription plate. The plate is sealed and spun on a centrifuge (1000 rpm for 30 seconds) to settle the contents to the bottom of the reverse transcription plate. The plate is placed in a thermocycler at 37° C. for 60 min, 95° C. for 5 min, and 4° C. until the plate is removed from the thermocycler. Upon removal, if not used immediately, the plate was frozen at −20° C.
(§8) A series of probes and primers were used to detect the various mRNA transcripts of the genes of 13-Actin (human cell line only), and of STATE and GAPDH in mouse and human cell lines. All Taqman probes and primers for the experiments here-in described were supplied as pre-validated sets by Applied Biosystems, Inc. (see Table 2).
The assays were performed on an ABI 7900 instrument, according to the manufacturer's instructions. A TaqMan Gene Expression Master Mix (provided in the Cells-to-CTT™, Applied Biosystems, Cat #4399002) was used. The PCR reactions were carried out at 50° C. for 2 min, 95° C. for 20 min followed by 40 cycles at 95° C. for 15 secs and 60° C. for 1 min. […]

STAT6 mRNA [2] = assay: STAT6 siNA screen in mouse NIH 3T3 cells, STAT6 mRNA by quantitative RT-PCR (Taqman); assay type: cell-based; conditions: mouse NIH3T3 cells, 10 nM siNA, 24 hrs, normalized to GAPDH and non-targeting control, n = 2
Protocol: NIH 3T3 (mouse; ATCC cat# CRL-1658): Cells were cultured at 37° C. in the presence of 5% CO2 and grown in Dulbecco's modified Eagle's medium (DMEM) with 4 mM L-glutamine adjusted to contain 1.5 g/L sodium bicarbonate and 4.5 g/L glucose and supplemented with fetal bovine serum at a final concentration of 10%, 100 μg/mL of streptomycin, and 100 U/mL penicillin.
as §1, §2, §3, §4, §5, §6, §7, §8
The assays were performed on an ABI 7900 instrument, according to the manufacturer's instructions. A TaqMan Gene Expression Master Mix (provided in the Cells-to-CTT™, Applied Biosystems, Cat #4399002) was used. […]

Substance | % KD STAT6 (STAT6 mRNA [1]) [%] | % KD STAT6 (STAT6 mRNA [2]) [%]
30024-DC: STAT6 siNA duplex; sense SEQ ID NO: 112, antisense SEQ ID NO: 113; target CGCUGUCUCCGGAGCUACU, site 1850 (sense CGCUGUCUCCGGAGCUACUTT; antisense AGUAGCUCCGGAGACAGCGUU; sense: DNA at AGT, 2'-fluoro at CU, [invAb] at 5' end, 3' end, backbone not given here; antisense: sugars from the 5' end rrrmmffffmmmmmfmmfmmm, backbone not given here) [STAT6 siNA duplex; target CGCUGUCUCCGGAGCUACU, site 1850] | 38.9 ± 11.2 | 19.5 ± 5.6
30021-DC: STAT6 siNA duplex; sense SEQ ID NO: 106, antisense SEQ ID NO: 107; target GUCAAUGGUCCUGGUCCAA, site 793 (sense GUCAAUGGUCCUGGUCCAATT; antisense UUGGACCAGGACCAUUGACUU; sense: DNA at AGT, 2'-fluoro at CU, [invAb] at 5' end, 3' end, backbone not given here; antisense: sugars from the 5' end rrrmmffmmmmffmffmmfmm, backbone not given here) [STAT6 siNA duplex; target GUCAAUGGUCCUGGUCCAA, site 793] | 17.2 ± 7.5 | −7 ± 7.2
30029-DC: STAT6 siNA duplex; sense SEQ ID NO: 122, antisense SEQ ID NO: 123; target GUGUCCUGGACCUCACCAA, site 1830 (sense GUGUCCUGGACCUCACCAATT; antisense UUGGUGAGGUCCAGGACACUU; sense: DNA at AGT, 2'-fluoro at CU, [invAb] at 5' end, 3' end, backbone not given here; antisense: sugars from the 5' end rrrmfmmmmfffmmmmfmfmm, backbone not given here) [STAT6 siNA duplex; target GUGUCCUGGACCUCACCAA, site 1830] | 13.2 ± 7.8 | −17.5 ± 12.8
30023-DC: STAT6 siNA duplex; sense SEQ ID NO: 110, antisense SEQ ID NO: 111; target CACCUUAUGAUCUUGGAAU, site 2288 (sense CACCUUAUGAUCUUGGAAUTT; antisense AUUCCAAGAUCAUAAGGUGUU; sense: DNA at AGT, 2'-fluoro at CU, [invAb] at 5' end, 3' end, backbone not given here; antisense: sugars from the 5' end rrrffmmmmffmfmmmmfmmm, backbone not given here) [STAT6 siNA duplex; target CACCUUAUGAUCUUGGAAU, site 2288] | 15.3 ± 05.4 | −0.8 ± 3.8
30015-DC: STAT6 siNA duplex; sense SEQ ID NO: 94, antisense SEQ ID NO: 95; target CUCAGAUGUGACUAUGGUA, site 2544 (sense CUCAGAUGUGACUAUGGUATT; antisense UACCAUAGUCACAUCUGAGUU; sense: DNA at AGT, 2'-fluoro at CU, [invAb] at 5' end, 3' end, backbone not given here; antisense: sugars from the 5' end rrrfmfmmffmfmfffmmmmm, backbone not given here) [STAT6 siNA duplex; target CUCAGAUGUGACUAUGGUA, site 2544] | 65.5 ± 7.6 | 81.6 ± 3.7
30022-DC: STAT6 siNA duplex; sense SEQ ID NO: 108, antisense SEQ ID NO: 109; target CCAAGACCCGGGCAUCGCU, site 1037 (sense CCAAGACCCGGGCAUCGCUTT; antisense AGCGAUGCCCGGGUCUUGGUU; sense: DNA at AGT, 2'-fluoro at CU, [invAb] at 5' end, 3' end, backbone not given here; antisense: chemistry not given here; in the key) [STAT6 siNA duplex; target …UCGCU, site 1037] | 56.1 ± 8.3 | 51.5 ± 0
